Where only a bound is given, the exact number is not on record here.

These results are taken from patent US10183021B2, “sGC stimulators” (Ironwood Pharmaceuticals, Inc., priority 2013, dated 2019).

For experiment [1], the system named is lambs with acute pulmonary hypertension. Particulars: inhaled microparticles, awake lambs, U-46619-induced pulmonary hypertension; cited from earlier work.
The next experiment has as its system obese mice. The following applies: cited from earlier work.
Experiment [2] addresses T1, soluble guanylate cyclase (sGC) (Homo sapiens (Human), UniProt Q02108+Q02153). Kind of experiment: sGC-HEK-cGMP assay with SNP incubation, HTRF detection (Example 2B). The class given is cell-based. Particulars: HEK293 cells, 10 μM SNP; for Emax: 100% = BAY 41-2272 at 10 μM + 100 μM SNP, read-out: HEK assay Emax - unconstrained (%); for EC50: read-out: HEK assay EC50 - unconstrained. How it is done:
Human embryonic kidney cells (HEK293), endogenously expressing soluble guanylate cyclase (sGC), were used to evaluate the activity of test compounds. Compounds stimulating the sGC enzyme should cause an increase in the intracellular concentration of cGMP. HEK 293 cells were seeded in Dulbecco's Modification of Eagle's Medium supplemented with fetal bovine serum (10% final) and L-glutamine (2 mM final) in a 200 μL volume at a density of 1×10^5 cells/well in a poly-D-lysine coated 96 well flat bottom plate and grown overnight at 37° C. Medium was aspirated and cells were washed with 1× Hank's Buffered Saline Salt Solution (200 μL). Cells were then incubated for 15 minutes at 37° C. with 200 μL of a 0.5 mM 3-isobutyl-1-methylxanthine (IBMX) solution. Test article and sodium nitroprusside solutions were then added to the assay mixture (2 μL each) and the resulting mixture incubated at 37° C. for 10 minutes. After the 10 minute incubation, the assay mixture was aspirated and 0.1M HCl (200 μL) was added to the cells. The plate was incubated at 4° C. for 30 minutes in the 0.1M HCl to stop the reaction and lyse the cells. The plates were then centrifuged at 1,200 g for 5 minutes at room temperature. GMP levels were determined using a cGMP HTRF assay (Cisbio Product #62GM2PEC). For each sample, 5 uL of HEK assay supernatant was diluted 1:5 in HTRF kit assay diluent and transferred to a well of the assay plate, and the HTRF assay was performed according to the HTRF kit manufacturer's instructions. Sample calculations were performed using high and low controls, where high control was supernatant from HEK assay performed in the presence of 10 uM Bay 41-2272+100 uM SNP, and the low control was the supernatant from the HEK assay performed in the presence of vehicle. A cGMP standard solution was prepared in 0.1 M HCl and diluted in order to perform a cGMP standard curve using the HTRF assay. Using Mean Ratio data from the HTRF assay, sample date were normalized according to the equation: 100*(Sample−Low Control)/(High Control−Low Control). Data were fit to a 3-parameter log agonist dose response (Top (% EMax), Bottom, log EC50) using Graphpad (Prism Software). Data in Table 4 was obtained using this modified assay procedure. (x μM concentration for test article solution and 10 μM concentration for SNP solution; wherein x is one of the following concentrations: 30 μM, 10 μM, 3 μM, 1 μM, 0.3 μM, 0.1 μM, 0.03 μM, 0.01 μM, 0.003 μM, 0.001 μM, 0.0003 μM and 0.01 nM.
A general note: TR-FRET usually uses a lanthanide donor and a delayed reading to cut background.

The target in experiment [3] is T1, soluble guanylate cyclase (sGC). Kind of experiment: sGC-HEK-cGMP assay, new protocol with DETA-NONOate, LC/MS detection (Example 2C). It counts as cell-based. The following applies: read-out: Absolute EC50 (uM) - binned.
Experiment [4] shares this target. Kind of experiment: sGC-HEK-cGMP assay with SNP incubation, LC/MS detection (Example 2A). The class given is cell-based. The following applies: HEK293 cells, 10 μM SNP, LC/MS detection; for Emax: 100% = BAY 41-2272 at 10 μM, read-out: HEK assay Emax - unconstrained (%). In short, it runs like this:
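HEK293 cells with endogenous sGC were pretreated 15 min at 37 °C with 0.5 mM IBMX, then exposed 10 min at 37 °C to compound (added from 0.0001–30 μM solutions) plus SNP (from 10 μM solution). After 0.1 M HCl lysis, cGMP was quantified by LC/MS against a standard curve.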

A further experiment concerns Sprague-Dawley rats. Kind of experiment: Blood pressure change in Sprague-Dawley rats (Example 4). It counts as in vivo, rat. The following applies: conscious male Sprague-Dawley rats, PO, 10 mg/kg. The procedure: Male rats (250-350 g body weight, supplied by Harlan Laboratories) were anesthetized with ketamine/xylazine and a heparinized saline fluid filled catheter implanted into the right femoral artery. The catheter was exteriorized between the scapula, capped, and the animal allowed to recover for at least 7 days post surgery prior to any compound testing. Prior to testing animals were maintained on normal diet, with free access to drinking water, under a 12 hour light-dark cycle.
On the day of experimentation, under inhaled isoflurane anesthesia, the catheter was uncapped and connected to a tether (Instech Labs) and pressure transducer (Harvard Apparatus). Blood pressure and heart rate were subsequently captured and analyzed with a dedicated data capture system (PowerLab, ADInstruments). Data sampling rates were set at 1 cycle per second. Once connected, each rat was allowed to recover from anesthesia and baseline blood pressure and heart rate levels were established in these conscious, freely-moving animals. Once baseline was established either vehicle (0.5% methylcellulose or 100% PEG400) or test article was administered orally (PO, 10 mg/kg) and the effects on blood pressure and heart rate monitored for up to 24 hours.
Data are reported as hourly averages and changes in blood pressure are calculated from subtracting individual baseline on an hourly basis.

The test system of experiment [5] is Guinea pig tracheal smooth muscle. Kind of experiment: Electrical field stimulated guinea pig tracheal smooth muscle contraction. Particulars: inhibition of EFS-induced guinea pig tracheal smooth muscle contraction; 95% CI 0.78-0.94. The text has this: It is possible to assess the bronchodilating effects of sGC stimulators by using the system described below. This system allows us to determine potency, efficacy and duration of action of several sGC stimulators, as well as to assess potential side effects such as blood pressure, or heart rate changes.
Animals: Guinea pig, Dunkin Hartley, male, Full barrier-bred and certified free of specific micro-organisms on receipt 525-609 g on the experimental day, Harlan UK Ltd. Guinea pigs are housed in a group of 4 in solid-bottomed cages with Gold Flake bedding in a controlled environment (airflow, temperature and humidity). Food (FD1, Special Diet Services) and water are provided ad libitum.
On each experimental day, a guinea pig is killed by exposure to a rising concentration of CO2 and the trachea removed. […] Tissues are washed with Kreb's buffer and stimulated using the previously determined sub-maximal voltage for 1 hour to establish a stable baseline contraction prior to assessment of compound activity.
A cumulative dose response curve (DRC) to each test substance is then performed and changes in smooth muscle contraction measured. The effect of each test substance in each experiment is expressed as a percentage inhibition of the baseline contraction, normalized to the relevant vehicle controls. […]

The next experiment deals with patients with BMD. The following applies: single oral dose of 20 mg; cited from earlier work.
Where [6] appears, read: top of curve fitted to 100%, read-out: HEK assay EC50 - constrained.
[7] abbreviates: top of curve not fitted to 100%, read-out: HEK assay EC50 - unconstrained.

T1 sequence (Q02153 whole entry): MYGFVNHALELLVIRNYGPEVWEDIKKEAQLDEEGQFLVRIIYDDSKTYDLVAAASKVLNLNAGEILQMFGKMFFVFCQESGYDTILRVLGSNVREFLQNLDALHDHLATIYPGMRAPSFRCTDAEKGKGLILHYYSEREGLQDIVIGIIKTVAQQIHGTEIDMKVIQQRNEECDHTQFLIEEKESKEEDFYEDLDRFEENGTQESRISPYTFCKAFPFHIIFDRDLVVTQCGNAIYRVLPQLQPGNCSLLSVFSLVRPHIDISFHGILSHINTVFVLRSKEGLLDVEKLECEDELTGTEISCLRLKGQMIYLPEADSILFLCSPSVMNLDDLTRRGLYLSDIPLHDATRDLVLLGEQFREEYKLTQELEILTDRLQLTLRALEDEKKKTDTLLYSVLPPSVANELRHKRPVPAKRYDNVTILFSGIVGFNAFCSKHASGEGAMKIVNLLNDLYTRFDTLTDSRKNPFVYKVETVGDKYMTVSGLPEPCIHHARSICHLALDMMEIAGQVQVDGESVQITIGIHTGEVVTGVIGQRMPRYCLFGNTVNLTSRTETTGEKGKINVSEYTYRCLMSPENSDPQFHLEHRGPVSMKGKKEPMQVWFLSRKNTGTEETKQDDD
T1 sequence (Q02108 whole entry): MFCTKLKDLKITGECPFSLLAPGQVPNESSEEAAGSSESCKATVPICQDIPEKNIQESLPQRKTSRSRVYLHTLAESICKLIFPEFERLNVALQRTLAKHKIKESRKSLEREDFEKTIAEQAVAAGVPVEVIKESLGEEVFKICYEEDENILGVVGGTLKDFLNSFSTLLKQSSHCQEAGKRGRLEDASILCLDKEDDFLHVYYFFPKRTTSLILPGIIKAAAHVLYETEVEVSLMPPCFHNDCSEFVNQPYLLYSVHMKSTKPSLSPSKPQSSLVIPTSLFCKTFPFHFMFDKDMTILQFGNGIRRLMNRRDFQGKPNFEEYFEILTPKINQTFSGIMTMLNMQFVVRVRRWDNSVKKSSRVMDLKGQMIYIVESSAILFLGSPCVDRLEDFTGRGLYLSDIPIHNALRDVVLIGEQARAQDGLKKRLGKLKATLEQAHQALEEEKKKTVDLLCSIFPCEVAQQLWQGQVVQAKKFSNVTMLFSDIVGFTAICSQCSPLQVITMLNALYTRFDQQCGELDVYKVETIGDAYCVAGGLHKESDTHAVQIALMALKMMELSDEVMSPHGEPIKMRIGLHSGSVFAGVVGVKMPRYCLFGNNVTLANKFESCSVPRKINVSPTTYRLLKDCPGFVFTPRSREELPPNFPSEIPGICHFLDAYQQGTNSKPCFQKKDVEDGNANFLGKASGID

On to `Nc1nc(-c2nn(Cc3ccccc3F)c3ncccc23)ncc1C1CC1` [BAY 41-2272], for which the pulmonary vasodilation result in experiment [1] is “dose dependent pulmonary vasodilation”.
Turning to `Nc1nc(-c2nn(Cc3ccccc3F)c3ncccc23)nc(N)c1N1CCOCC1` [BAY 41-8543], the pulmonary vasodilation result in experiment [1] is recorded as “dose dependent pulmonary vasodilation”.
`O=C(O)CCCCN(CCc1ccccc1OCc1ccc(CCc2ccccc2)cc1)Cc1ccc(C(=O)O)cc1` [BAY 58-2667]: the pulmonary vasodilation result in experiment [1] is on record as “dose dependent pulmonary vasodilation”.
Turning to `O=C(O)CCCCN(CCc1cc(F)ccc1OCc1ccc(-c2ccc(C(F)(F)F)cc2)cc1)Cc1ccc(C(=O)O)cc1` [BAY 60-2770], the “effect on overactive bladder” value in the experiment with obese mice is “ameliorates overactive bladder in obese mice”.
The term Emax denotes the size of the effect at its maximum, as opposed to the concentration needed. For orientation: EC50 means the midpoint of the concentration-response curve. Turning to `O=C(O)CNc1nc(-c2cc(-c3ccon3)n(Cc3ccccc3F)n2)ncc1F` [Compound I-67], the Emax in experiment [2] lay in the range of 60 to 80%; in experiment [4] it was 80 to 100%. Also, the concentration for a half-maximal effect (EC50) was 1000 to 5000 nM in experiment [2], > 1 µM in experiment [3], > 10000 nM in experiment [4] (setting [6]) and 5000 to 10000 nM in experiment [4] (setting [7]).
As for `CC(C)[C@@H](C(=O)O)N(C)c1nc(-c2nc(-c3ccon3)n(Cc3ccccc3F)n2)ncc1F` [Compound I-200], the maximal response (Emax) in experiment [2] is 100 to 120%; in experiment [4], 80 to 100%. Moreover, the concentration for a half-maximal effect (EC50) in experiment [2] was 1000 to 5000 nM; in experiment [3], > 1 µM; in experiment [4] (setting [6]), 1000 to 5000 nM; in experiment [4] (setting [7]), 5000 to 10000 nM.
With `CC(C)C[C@H](C(=O)O)N(C)c1nc(-c2cc(-c3ccon3)n(Cc3ccccc3F)n2)ncc1F` [Compound I-221], the Emax was in the range of 100 to 120% in experiment [2] and 0 to 10% in experiment [4]. The figures for the EC50 in experiment [2], in experiment [3] and in experiment [4] (setting [7]) were 1000 to 5000 nM, < 0.1 µM and > 10000 nM, respectively.
Take `CC(C)[C@H](CN(C)c1nc(-c2cc(-c3ccon3)n(Cc3ccccc3F)n2)ncc1F)C(=O)O` [Compound I-248]: the Emax in experiment [2] and in experiment [4] was 80 to 100% each time. In addition, the 50% effective concentration (EC50) in experiment [2] and in experiment [4] (setting [7]) was 1 to 100 nM each time. Further, in the experiment with Sprague-Dawley rats, the “Rat Mean Arterial Pressure peak change from baseline at 10 mpk” value is listed as “C (C = peak change from baseline at 10 mpk < −20)”.
With `CC(C)[C@@H](CN(C)c1nc(-c2cc(-c3ccon3)n(Cc3ccccc3F)n2)ncc1F)C(=O)O` [Compound I-253], the maximal effect (Emax) in experiment [2] fell in the range of 80 to 100%; in experiment [4], 60 to 80%. Besides, the half-maximal effective concentration (EC50) in experiment [2] and in experiment [4] (setting [7]) was 1 to 100 nM in each case. Besides, the “Rat Mean Arterial Pressure peak change from baseline at 10 mpk” value in the experiment on Sprague-Dawley rats is on record as “B (B = −20 ≤ peak change from baseline at 10 mpk ≤ −10)”.
As usually defined, the IC50 is the midpoint of a concentration-inhibition curve. `CC(C)[N+]1(C)[C@@H]2CC[C@H]1CC(OC(=O)C(CO)c1ccccc1)C2` (stereo partly drawn) [Ipratropium bromide] gave an IC50 in experiment [5] of 0.86 nM.
On to `CN1CC(=O)N2[C@H](c3ccc4c(c3)OCO4)c3[nH]c4ccccc4c3C[C@@H]2C1=O` [tadalafil], for which the “blood flow regulation (exercise-induced attenuation of reflex vasoconstriction)” value with patients with BMD is listed as “normal blood flow regulation was restored in eight of nine patients”.
